Assay results from patent US20250034212A1, “PEPTIDE” (PEPTIDREAM INC., priority 2021, published 2025).
Starred links: 1 amine or outer side, 2 acyl side, 3 side chain; linkers in the order of their positions; H or OH if unused. Positions of bridges follow the written chain, without caps; N, C: chain ends. Non-standard residues stand in square brackets, D forms with d. Residues, ends and D or L forms follow the SMILES beside them. Groups on a side chain read outwards from the residue. No end group written: not given here. *: point of attachment. KCOmeglumine = N6-(methyl-((2S,3R,4R,5R)-2,3,4,5,6-pentahydroxyhexyl)carbamoyl)-L-lysine, CN(C[C@H](O)[C@@H](O)[C@H](O)[C@H](O)CO)C(=O)NCCCC[C@H](N[*:1])C(=O)[*:2]; KCOpipzaa = N6-(4-(carboxymethyl)piperazine-1-carbonyl)-L-lysine, O=C(NCCCC[C@H](N[*:1])C(=O)[*:2])N1CCN(CC(=O)[*:3])CC1; Meglumine = CN(C[C@H](O)[C@@H](O)[C@H](O)[C@H](O)CO)*; Trp(7-aza) = N[C@@H](Cc1c[nH]c2ncccc12)C(=O)O; Piperazinyl(4-CH2COOH) = O=C(O)CN1CCN(*)CC1; 1Nal = N[C@@H](Cc1cccc2ccccc12)C(=O)O; Gly(NCH2CH2Ph) = O=C(O)CNCCc1ccccc1; 4Pal = N[C@@H](Cc1ccncc1)C(=O)O; CO = O=C([*:1])[*:2]

Legend:
recombinant human TGF-β1 = biological target: T1, recombinant human TGF-β1 (Homo sapiens, UniProt P01137); assay: SBE reporter assay in SBE reporter-HEK293 cells, TGF-β1 stimulation; format: cell-based; conditions: TGF-β1 0.13 nM, 18 hours; for inhibition at 75 pM: peptide 0.075 nM; for inhibition at 0.00075 µM: peptide 0.75 nM; for inhibition at 0.0075 µM: peptide 7.5 nM; for inhibition at 0.075 µM: peptide 75.0 nM; for inhibition at 62 pM: peptide 0.062 nM; for inhibition at 0.000185 µM: peptide 0.185 nM; for inhibition at 0.00056 µM: peptide 0.56 nM; for inhibition at 0.0017 µM: peptide 1.7 nM; for inhibition at 0.005 µM: peptide 5.0 nM; for inhibition at 0.015 µM: peptide 15.0 nM
T1 construct: purchased R&D systems
Description: The inhibitory activity of the peptide can be calculated without limitation while the maximum signal induced by TGF-β is set to 0% inhibition and no stimulation is set to 100% inhibition. When the peptide is used at an appropriate concentration, for example, at the optimal concentration, the inhibitory activity is not limited but the inhibition is 5% or more, 10% or more, 20% or more, 30% or more, 40% or more, 50% or more, 60% or more, 70% or more, 80% or more, or 90% or more.
In this Example, the TGF-β1 inhibitory activity of the peptide of the present invention consisting of the amino acid sequence set forth in SEQ ID NOs: 2-33 synthesized in Examples 1 to 5 and 7 was evaluated by an SBE reporter assay using the SBE reporter-HEK293 cell system (BP Bioscience) as follows.
SBE reporter-HEK293 cells were cultured in E-MEM (Wako) containing 10% FBS (Sigma). The cells were detached using Accutase (Innovative Cell Technologies), suspended in E-MEM containing 0.5% FBS, seeded onto a 96-well plate(s) at a concentration of 45,000 cells per well, and cultured overnight. The next day, the peptide was added and allowed to stand for 20 min, and recombinant human TGF-β1 (R&D systems) or recombinant human TGF-β2 (R&D systems) was then added at 0.13 nM and cultured for 18 hours.
Thereafter, luciferase assay ONE-Glo reagent was added to each well and the plate was shaken for 5 min. A SpectraMax Paradigm multimode microplate reader (Molecular Devices) was then used for signal detection. The obtained signals were analyzed by GraphPad Prism. The inhibitory activity of the peptide was calculated while the maximum signal induced by TGF-β was set to 0% inhibition and no stimulation was set to 100% inhibition.

[1] = biological target: T2, recombinant human TGF-β1 (R&D systems) (human, UniProt P01137 279-390); assay: cell-based or functional assay
[2] = biological target: T2, recombinant human TGF-β1 (R&D systems); assay: cell-based or functional assay; remark: listed apart in the source

T1 sequence (P01137 279-390 limits assumed): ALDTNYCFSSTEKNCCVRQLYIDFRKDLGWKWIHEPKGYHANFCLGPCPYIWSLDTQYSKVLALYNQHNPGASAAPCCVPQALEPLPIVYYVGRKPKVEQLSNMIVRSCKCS
T2 sequence (P01137 279-390 limits assumed): as above

Molecule | inhibition at 75 pM (recombinant human TGF-β1) | inhibition at 0.00075 µM (recombinant human TGF-β1) | inhibition at 0.0075 µM (recombinant human TGF-β1) | inhibition at 0.075 µM (recombinant human TGF-β1) | inhibition at 62 pM (recombinant human TGF-β1) | inhibition at 0.000185 µM (recombinant human TGF-β1) | inhibition at 0.00056 µM (recombinant human TGF-β1) | inhibition at 0.0017 µM (recombinant human TGF-β1) | inhibition at 0.005 µM (recombinant human TGF-β1) | inhibition at 0.015 µM (recombinant human TGF-β1) | further results
CC(C)[C@@H]1NC(=O)CN(CCc2ccccc2)C(=O)[C@H](CC(=O)O)NC(=O)[C@H](CC(=O)O)NC(=O)[C@H](Cc2ccncc2)NC(=O)[C@H](C(C)C)NC(=O)[C@H](CC(N)=O)NC(=O)[C@H](C(C)C)NC(=O)[C@H](C(C)C)NC(=O)[C@H](Cc2cccc3ccccc23)NC(=O)[C@H](Cc2ccccc2)NC(=O)CSC[C@@H](C(=O)NCC(N)=O)NC(=O)[C@H](CCCCNC(=O)N(C)C[C@H](O)[C@@H](O)[C@H](O)[C@H](O)CO)NC(=O)[C@H](Cc2c[nH]cn2)NC(=O)[C@H](Cc2ccc(O)cc2)NC(=O)[C@H](Cc2cccc3ccccc23)NC1=O [TGFb1_016] ({CH2CO}-F[1Nal]VVNV[4Pal]DD[Gly(NCH2CH2Ph)]V[1Nal]YHK([CO-Meglumine])CG-NH2; thioether N-16) | 6.1% | 61% | 97.6% | 100% |  |  |  |  |  |  | 
CC(C)[C@@H]1NC(=O)CN(CCc2ccccc2)C(=O)[C@H](CCCCNC(=O)N2CCN(CC(=O)O)CC2)NC(=O)[C@H](CC(=O)O)NC(=O)[C@H](Cc2ccncc2)NC(=O)[C@H](C(C)C)NC(=O)[C@H](CC(N)=O)NC(=O)[C@H](C(C)C)NC(=O)[C@H](C(C)C)NC(=O)[C@H](Cc2c[nH]c3ncccc23)NC(=O)[C@H](Cc2ccccc2)NC(=O)CSC[C@@H](C(=O)NCC(N)=O)NC(=O)[C@H](C(C)C)NC(=O)[C@H](Cc2c[nH]cn2)NC(=O)[C@H](Cc2ccc(O)cc2)NC(=O)[C@H](Cc2cccc3ccccc23)NC1=O [TGFb1_017] ({CH2CO}-F[Trp(7-aza)]VVNV[4Pal]DK([CO-Piperazinyl(4-CH2COOH)])[Gly(NCH2CH2Ph)]V[1Nal]YHVCG-NH2; thioether N-16) | 21.7% | 60.2% | 97.2% | 100% |  |  |  |  |  |  | 
CC(C)[C@@H]1NC(=O)CN(CCc2ccccc2)C(=O)[C@H](CCCCNC(=O)N(C)C[C@H](O)[C@@H](O)[C@H](O)[C@H](O)CO)NC(=O)[C@H](CC(=O)O)NC(=O)[C@H](Cc2ccncc2)NC(=O)[C@H](C(C)C)NC(=O)[C@H](CC(N)=O)NC(=O)[C@H](C(C)C)NC(=O)[C@H](C(C)C)NC(=O)[C@H](Cc2c[nH]c3ncccc23)NC(=O)[C@H](Cc2ccccc2)NC(=O)CSC[C@@H](C(=O)NCC(N)=O)NC(=O)[C@H](C(C)C)NC(=O)[C@H](Cc2c[nH]cn2)NC(=O)[C@H](Cc2ccc(O)cc2)NC(=O)[C@H](Cc2cccc3ccccc23)NC1=O [TGFb1_018] ({CH2CO}-F[Trp(7-aza)]VVNV[4Pal]DK([CO-Meglumine])[Gly(NCH2CH2Ph)]V[1Nal]YHVCG-NH2; thioether N-16) | 22.2% | 61% | 97.6% | 99.9% |  |  |  |  |  |  | 
{CH2CO}-F[1Nal]VVNV[4Pal]D[KCOmeglumine][Gly(NCH2CH2Ph)]V[1Nal]YH[KCOpipzaa]CG-NH2 (thioether N-16; SMILES CC(C)[C@@H]1NC(=O)CN(CCc2ccccc2)C(=O)[C@H](CCCCNC(=O)N(C)C[C@H](O)[C@@H](O)[C@H](O)[C@H](O)CO)NC(=O)[C@H](CC(=O)O)NC(=O)[C@H](Cc2ccncc2)NC(=O)[C@H](C(C)C)NC(=O)[C@H](CC(N)=O)NC(=O)[C@H](C(C)C)NC(=O)[C@H](C(C)C)NC(=O)[C@H](Cc2cccc3ccccc23)NC(=O)[C@H](Cc2ccccc2)NC(=O)CSC[C@@H](C(=O)NCC(N)=O)NC(=O)[C@H](CCCCNC(=O)N2CCN(CC(=O)O)CC2)NC(=O)[C@H](Cc2c[nH]cn2)NC(=O)[C@H](Cc2ccc(O)cc2)NC(=O)[C@H](Cc2cccc3ccccc23)NC1=O) [TGFb1_023] |  |  |  |  |  |  |  |  |  |  | SBE reporter % inhibition, peptide 0.062 nM [1]: 8.58%; SBE reporter % inhibition, peptide 0.185 nM [1]: 24.4%; SBE reporter % inhibition, peptide 0.56 nM [1]: 49.7%; SBE reporter % inhibition, peptide 1.7 nM [1]: 82.3%; SBE reporter % inhibition, peptide 5.0 nM [1]: 96%; SBE reporter % inhibition, peptide 15.0 nM [1]: 99.5%
{CH2CO}-F[1Nal]VVNV[4Pal]DD[Gly(NCH2CH2Ph)]V[1Nal]YHVCG (thioether N-16; not fully specified (C-terminus), cyclic peptide; C-terminal G is a linker) [TGFb1_006] |  |  |  |  |  |  |  |  |  |  | SBE reporter % inhibition, peptide 0.075 nM [2]: 2.8%; SBE reporter % inhibition, peptide 0.75 nM [2]: 69.3%; SBE reporter % inhibition, peptide 7.5 nM [2]: 97.1%; SBE reporter % inhibition, peptide 75.0 nM [2]: 99.7%

Second part, led by results:

inhibition at 75 pM (recombinant human TGF-β1) | inhibition at 0.00075 µM (recombinant human TGF-β1) | inhibition at 0.0075 µM (recombinant human TGF-β1) | inhibition at 0.075 µM (recombinant human TGF-β1) | inhibition at 62 pM (recombinant human TGF-β1) | inhibition at 0.000185 µM (recombinant human TGF-β1) | inhibition at 0.00056 µM (recombinant human TGF-β1) | inhibition at 0.0017 µM (recombinant human TGF-β1) | inhibition at 0.005 µM (recombinant human TGF-β1) | inhibition at 0.015 µM (recombinant human TGF-β1) | Molecule | further results
 |  |  |  | 10.2% | 26.9% | 58.9% | 87.8% | 97.1% | 98.8% | CC(C)[C@@H]1NC(=O)CN(CCc2ccccc2)C(=O)[C@H](CCC(=O)O)NC(=O)[C@H](CC(=O)O)NC(=O)[C@H](Cc2ccncc2)NC(=O)[C@H](C(C)C)NC(=O)[C@H](CC(N)=O)NC(=O)[C@H](C(C)C)NC(=O)[C@H](C(C)C)NC(=O)[C@H](Cc2cccc3ccccc23)NC(=O)[C@H](Cc2ccccc2)NC(=O)CSC[C@@H](C(=O)NCC(N)=O)NC(=O)[C@H](CCCCNC(=O)N2CCN(CC(=O)O)CC2)NC(=O)[C@H](Cc2c[nH]cn2)NC(=O)[C@H](Cc2ccc(O)cc2)NC(=O)[C@H](Cc2cccc3ccccc23)NC1=O [TGFb1_021] ({CH2CO}-F[1Nal]VVNV[4Pal]DE[Gly(NCH2CH2Ph)]V[1Nal]YHK([CO-Piperazinyl(4-CH2COOH)])CG-NH2; thioether N-16) | 
 |  |  |  | 2.53% | 9.14% | 28.4% | 59.4% | 84.9% | 95.5% | CC(C)[C@@H]1NC(=O)CN(CCc2ccccc2)C(=O)[C@H](CC(=O)O)NC(=O)[C@H](CC(=O)O)NC(=O)[C@H](Cc2ccncc2)NC(=O)[C@H](C(C)C)NC(=O)[C@H](CC(N)=O)NC(=O)[C@H](C(C)C)NC(=O)[C@H](C(C)C)NC(=O)[C@H](Cc2cccc3ccccc23)NC(=O)[C@H](Cc2ccccc2)NC(=O)CSC[C@@H](C(=O)NCC(N)=O)NC(=O)[C@H](CCC(=O)O)NC(=O)[C@H](Cc2c[nH]cn2)NC(=O)[C@H](Cc2ccc(O)cc2)NC(=O)[C@H](Cc2cccc3ccccc23)NC1=O [TGFb1_027] ({CH2CO}-F[1Nal]VVNV[4Pal]DD[Gly(NCH2CH2Ph)]V[1Nal]YHECG-NH2; thioether N-16) | 
 |  |  |  | 0.94% | 6.17% | 20.4% | 47.6% | 73.9% | 91.7% | CC(C)[C@@H]1NC(=O)CN(CCc2ccccc2)C(=O)[C@H](CC(=O)O)NC(=O)[C@H](CC(=O)O)NC(=O)[C@H](Cc2ccncc2)NC(=O)[C@H](C(C)C)NC(=O)[C@H](CC(N)=O)NC(=O)[C@H](CCCCNC(=O)N(C)C[C@H](O)[C@@H](O)[C@H](O)[C@H](O)CO)NC(=O)[C@H](C(C)C)NC(=O)[C@H](Cc2cccc3ccccc23)NC(=O)[C@H](Cc2ccccc2)NC(=O)CSC[C@@H](C(=O)NCC(N)=O)NC(=O)[C@H](CCC(=O)O)NC(=O)[C@H](Cc2c[nH]cn2)NC(=O)[C@H](Cc2ccc(O)cc2)NC(=O)[C@H](Cc2cccc3ccccc23)NC1=O [TGFb1_028] ({CH2CO}-F[1Nal]VK([CO-Meglumine])NV[4Pal]DD[Gly(NCH2CH2Ph)]V[1Nal]YHECG-NH2; thioether N-16) | 
 |  |  |  | 12% | 16.9% | 32.4% | 63.7% | 85.8% | 96.8% | CC(C)[C@@H]1NC(=O)CN(CCc2ccccc2)C(=O)[C@H](CCC(=O)O)NC(=O)[C@H](CC(=O)O)NC(=O)[C@H](Cc2ccncc2)NC(=O)[C@H](C(C)C)NC(=O)[C@H](CC(N)=O)NC(=O)[C@H](CCCCNC(=O)N(C)C[C@H](O)[C@@H](O)[C@H](O)[C@H](O)CO)NC(=O)[C@H](C(C)C)NC(=O)[C@H](Cc2cccc3ccccc23)NC(=O)[C@H](Cc2ccccc2)NC(=O)CSC[C@@H](C(=O)NCC(N)=O)NC(=O)[C@H](CCC(=O)O)NC(=O)[C@H](Cc2c[nH]cn2)NC(=O)[C@H](Cc2ccc(O)cc2)NC(=O)[C@H](Cc2cccc3ccccc23)NC1=O [TGFb1_029] ({CH2CO}-F[1Nal]VK([CO-Meglumine])NV[4Pal]DE[Gly(NCH2CH2Ph)]V[1Nal]YHECG-NH2; thioether N-16) | 
